Calls of active or inactive are those of the source.
What was measured:
[1] = target: T1, Aminopeptidase N (Plasmodium falciparum FcB1/Columbia, UniProt O96935); assay: malaria alanyl aminopeptidase activity blockers – biochemical, fluorogenic H-Leu-NHMec substrate, 1536-well (AID 1445); design: species or system Plasmodium falciparum 3D7, 3D7
T1 sequence (O96935 whole entry): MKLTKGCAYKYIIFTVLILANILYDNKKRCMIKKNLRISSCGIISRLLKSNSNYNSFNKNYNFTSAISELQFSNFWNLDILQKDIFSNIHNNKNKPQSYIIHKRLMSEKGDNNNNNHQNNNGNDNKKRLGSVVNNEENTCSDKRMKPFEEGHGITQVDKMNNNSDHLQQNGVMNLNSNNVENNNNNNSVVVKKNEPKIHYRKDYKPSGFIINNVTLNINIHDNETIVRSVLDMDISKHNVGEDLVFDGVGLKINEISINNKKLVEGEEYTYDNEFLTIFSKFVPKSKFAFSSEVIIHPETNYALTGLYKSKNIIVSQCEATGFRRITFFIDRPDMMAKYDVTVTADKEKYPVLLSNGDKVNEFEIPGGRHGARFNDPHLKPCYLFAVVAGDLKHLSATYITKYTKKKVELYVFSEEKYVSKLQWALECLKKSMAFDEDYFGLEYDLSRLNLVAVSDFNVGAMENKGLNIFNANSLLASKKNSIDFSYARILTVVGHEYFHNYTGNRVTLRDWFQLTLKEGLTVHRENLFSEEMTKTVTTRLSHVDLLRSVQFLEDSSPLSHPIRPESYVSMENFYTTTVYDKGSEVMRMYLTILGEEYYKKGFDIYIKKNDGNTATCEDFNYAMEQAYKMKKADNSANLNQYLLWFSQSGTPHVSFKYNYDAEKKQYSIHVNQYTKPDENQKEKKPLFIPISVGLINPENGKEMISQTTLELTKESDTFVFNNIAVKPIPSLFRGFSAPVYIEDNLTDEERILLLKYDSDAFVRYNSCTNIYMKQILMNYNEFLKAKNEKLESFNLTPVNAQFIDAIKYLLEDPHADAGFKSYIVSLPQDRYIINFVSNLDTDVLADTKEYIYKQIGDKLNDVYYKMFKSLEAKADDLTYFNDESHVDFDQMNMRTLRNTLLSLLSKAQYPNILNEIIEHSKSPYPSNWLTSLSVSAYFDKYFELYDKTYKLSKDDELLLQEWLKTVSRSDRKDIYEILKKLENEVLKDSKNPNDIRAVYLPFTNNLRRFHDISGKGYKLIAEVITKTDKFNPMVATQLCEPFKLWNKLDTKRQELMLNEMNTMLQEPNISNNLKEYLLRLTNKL

[2] = target: T2, Short transient receptor potential channel 4 (Mus musculus, UniProt Q9QUQ5); assay: block of DAMGO-driven TRPC4 calcium entry – cell-based, HEK293 TRPC4/mu-opioid, Fluo-4 calcium, dose response (AID 434942); type: functional;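 further: potency of inhibitors blocking the TRPC4 calcium response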
T2 sequence (Q9QUQ5 whole entry): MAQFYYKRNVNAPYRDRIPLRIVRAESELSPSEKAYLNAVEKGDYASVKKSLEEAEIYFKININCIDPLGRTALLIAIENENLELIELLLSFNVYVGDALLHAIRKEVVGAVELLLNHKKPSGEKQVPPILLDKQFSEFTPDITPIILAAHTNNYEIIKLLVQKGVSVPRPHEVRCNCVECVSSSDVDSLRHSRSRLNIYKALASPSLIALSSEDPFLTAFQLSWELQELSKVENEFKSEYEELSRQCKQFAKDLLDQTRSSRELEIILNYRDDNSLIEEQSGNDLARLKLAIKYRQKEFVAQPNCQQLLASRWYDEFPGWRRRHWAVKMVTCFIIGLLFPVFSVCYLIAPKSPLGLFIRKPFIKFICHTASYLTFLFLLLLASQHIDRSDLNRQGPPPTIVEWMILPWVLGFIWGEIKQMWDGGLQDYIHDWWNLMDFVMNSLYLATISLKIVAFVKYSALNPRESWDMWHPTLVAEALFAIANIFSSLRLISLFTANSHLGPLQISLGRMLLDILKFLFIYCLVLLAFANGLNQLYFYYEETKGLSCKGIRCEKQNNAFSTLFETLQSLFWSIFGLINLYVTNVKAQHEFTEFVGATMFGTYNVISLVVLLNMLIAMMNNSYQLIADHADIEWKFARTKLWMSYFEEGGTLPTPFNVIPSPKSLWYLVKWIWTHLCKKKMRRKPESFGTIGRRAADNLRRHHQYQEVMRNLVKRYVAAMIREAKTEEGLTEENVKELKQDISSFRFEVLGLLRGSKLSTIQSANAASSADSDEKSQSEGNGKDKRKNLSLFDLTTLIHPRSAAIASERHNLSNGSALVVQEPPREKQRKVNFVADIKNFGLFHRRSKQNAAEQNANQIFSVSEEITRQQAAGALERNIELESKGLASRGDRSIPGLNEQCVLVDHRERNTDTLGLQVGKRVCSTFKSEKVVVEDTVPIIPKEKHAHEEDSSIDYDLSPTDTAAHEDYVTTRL

[3] = tested on: Streptococcus sp. 'group A'; assay: Streptococcus pyogenes SK(-)GAS viability under kanamycin – luminescence, BacTiterGlo, confirmation, counter-screen for streptokinase expression inhibitor project, dose response (AID 1900); type: functional, organism-based
[4] = target: T2, Short transient receptor potential channel 4; assay: calcium entry via TRPC4 opening agents – cell-based, HEK293 TRPC4/mu-opioid, Fluo-4 calcium, dose response (AID 434937); type: functional
[5] = tested on: Streptococcus; assay: GAS UMAA2166 growth inhibition – luminescence, BacTiterGlo, counter-screen for streptokinase expression inhibitor project, dose response (AID 1915); type: functional, organism-based;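 further: potency for reduction of bacterial viability or growth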
[6] = target: Melanin-concentrating hormone receptor 1 (Homo sapiens, UniProt Q99705); assay: Late-stage fluorescence-based counterscreen for antagonists of the G-protein coupled receptor 7 (GPR7): cell-based dose response assay to identify antagonists of the melanin-concentrating hormone receptor 1 (MCHR1). [Related pubchem assays (depositor defined):AID1861, AID1880, AID1952, AID2148, AID2251, AID2257, AID485339]; type: functional;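 further: stimulated with 30 nM MCH peptide agonist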
Chain of Melanin-concentrating hormone receptor 1 (Q99705 whole entry): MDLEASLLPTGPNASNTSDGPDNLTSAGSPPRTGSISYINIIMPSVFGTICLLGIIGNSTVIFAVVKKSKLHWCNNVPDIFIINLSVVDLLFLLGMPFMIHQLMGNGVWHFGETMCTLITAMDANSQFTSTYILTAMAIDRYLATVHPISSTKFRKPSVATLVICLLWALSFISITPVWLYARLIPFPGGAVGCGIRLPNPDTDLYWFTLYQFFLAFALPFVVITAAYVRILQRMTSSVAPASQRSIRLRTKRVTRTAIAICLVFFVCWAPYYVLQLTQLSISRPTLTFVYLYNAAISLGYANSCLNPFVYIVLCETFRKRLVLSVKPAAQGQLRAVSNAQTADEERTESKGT

[7] = target: Troponin, cardiac muscle (Homo sapiens, UniProt P19429+P45379+P63316); assay: Fluorescence-based biochemical high throughput dose response assay for activators of the calcium sensitivity of cardiac Regulated Thin Filaments (RTF). [Related pubchem assays (depositor defined):AID493008, AID493018, AID504382, AID504383]; type: protein-complex assay
[8] = target: T3, Calpain-2 catalytic subunit (Sus scrofa, UniProt P43367); assay: m-calpain protease blockers, concentration series – biochemical, fluorogenic peptide substrate, dose response (AID 1420); type: functional
T3 sequence (P43367 whole entry): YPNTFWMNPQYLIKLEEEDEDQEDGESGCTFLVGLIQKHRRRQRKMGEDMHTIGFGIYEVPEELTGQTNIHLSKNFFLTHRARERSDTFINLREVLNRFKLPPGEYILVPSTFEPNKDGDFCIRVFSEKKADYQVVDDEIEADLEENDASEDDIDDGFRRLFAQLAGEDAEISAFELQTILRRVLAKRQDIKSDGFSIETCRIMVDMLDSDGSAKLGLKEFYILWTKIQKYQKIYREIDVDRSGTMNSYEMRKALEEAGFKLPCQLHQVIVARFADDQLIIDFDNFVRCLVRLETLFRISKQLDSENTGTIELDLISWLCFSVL

[9] = target: T4, SUMO-activating enzyme (Homo sapiens, UniProt Q9UBT2); assay: blockers of UBC9-mediated SUMO conjugation – biochemical, AlphaScreen, SUMOylation inhibitor project, confirmation (AID 2018); type: functional
T4 sequence (Q9UBE0 whole entry): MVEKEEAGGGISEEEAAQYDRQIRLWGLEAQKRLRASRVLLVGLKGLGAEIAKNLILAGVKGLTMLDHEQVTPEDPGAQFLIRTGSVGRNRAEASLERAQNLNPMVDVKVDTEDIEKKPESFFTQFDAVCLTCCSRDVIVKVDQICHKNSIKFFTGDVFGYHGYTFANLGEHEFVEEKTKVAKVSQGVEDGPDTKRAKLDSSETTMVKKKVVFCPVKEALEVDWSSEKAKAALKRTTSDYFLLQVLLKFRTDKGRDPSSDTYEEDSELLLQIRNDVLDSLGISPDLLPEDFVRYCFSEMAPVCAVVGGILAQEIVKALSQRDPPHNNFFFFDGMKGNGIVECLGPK
T4 sequence (Q9UBT2 whole entry): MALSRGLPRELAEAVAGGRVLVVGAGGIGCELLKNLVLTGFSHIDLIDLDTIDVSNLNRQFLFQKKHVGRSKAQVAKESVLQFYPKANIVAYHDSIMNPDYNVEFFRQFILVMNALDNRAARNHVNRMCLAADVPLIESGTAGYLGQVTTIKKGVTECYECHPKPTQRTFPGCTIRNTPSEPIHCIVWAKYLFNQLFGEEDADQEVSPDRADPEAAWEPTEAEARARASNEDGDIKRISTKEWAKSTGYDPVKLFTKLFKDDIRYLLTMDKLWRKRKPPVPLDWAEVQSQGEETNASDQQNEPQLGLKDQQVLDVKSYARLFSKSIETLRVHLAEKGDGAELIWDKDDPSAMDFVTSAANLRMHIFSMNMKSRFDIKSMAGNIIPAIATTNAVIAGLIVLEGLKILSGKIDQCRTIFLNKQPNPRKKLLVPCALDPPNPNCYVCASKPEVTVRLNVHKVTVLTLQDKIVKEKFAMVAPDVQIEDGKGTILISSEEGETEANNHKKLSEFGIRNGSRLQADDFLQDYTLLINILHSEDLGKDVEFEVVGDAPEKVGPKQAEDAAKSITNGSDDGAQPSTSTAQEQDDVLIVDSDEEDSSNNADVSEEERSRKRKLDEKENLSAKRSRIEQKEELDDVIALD

[10] = target: T4, SUMO-activating enzyme; assay: blockers of SAE1/SAE2–UBC9 SUMO transfer – biochemical, HTRF, uHTS, primary screen (AID 2006); type: protein-complex assay
[11] = target: T5, Leucine aminopeptidase (Plasmodium falciparum 3D7, UniProt Q8IL11); assay: P. falciparum M17LAP inhibitors, primary screen, biochemical, fluorogenic H-Leu-NHMec substrate, 1536-well (AID 1619); type: functional
T5 sequence (Q8IL11 whole entry): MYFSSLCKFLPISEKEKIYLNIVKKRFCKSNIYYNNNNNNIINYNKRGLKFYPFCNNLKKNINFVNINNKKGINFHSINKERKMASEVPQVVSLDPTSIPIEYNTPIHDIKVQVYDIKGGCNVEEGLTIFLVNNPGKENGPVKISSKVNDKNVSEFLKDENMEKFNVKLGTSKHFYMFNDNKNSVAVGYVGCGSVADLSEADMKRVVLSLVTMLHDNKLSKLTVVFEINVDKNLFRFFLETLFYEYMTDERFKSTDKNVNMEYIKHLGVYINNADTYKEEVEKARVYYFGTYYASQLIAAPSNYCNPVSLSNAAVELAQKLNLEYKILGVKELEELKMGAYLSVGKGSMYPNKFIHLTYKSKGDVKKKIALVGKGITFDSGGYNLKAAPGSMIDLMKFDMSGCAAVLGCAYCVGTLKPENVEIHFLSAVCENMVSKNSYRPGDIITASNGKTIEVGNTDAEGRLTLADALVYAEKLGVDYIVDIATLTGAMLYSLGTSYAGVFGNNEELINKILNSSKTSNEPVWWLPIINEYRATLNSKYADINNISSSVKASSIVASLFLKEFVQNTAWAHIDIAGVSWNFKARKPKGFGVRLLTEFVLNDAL

[12] = target: Voltage-dependent T-type calcium channel subunit alpha-1H (Homo sapiens, UniProt O95180); type: functional;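 further: channel activity triggered by adding a high calcium stimulation buffer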
Chain of Voltage-dependent T-type calcium channel subunit alpha-1H (O95180 whole entry): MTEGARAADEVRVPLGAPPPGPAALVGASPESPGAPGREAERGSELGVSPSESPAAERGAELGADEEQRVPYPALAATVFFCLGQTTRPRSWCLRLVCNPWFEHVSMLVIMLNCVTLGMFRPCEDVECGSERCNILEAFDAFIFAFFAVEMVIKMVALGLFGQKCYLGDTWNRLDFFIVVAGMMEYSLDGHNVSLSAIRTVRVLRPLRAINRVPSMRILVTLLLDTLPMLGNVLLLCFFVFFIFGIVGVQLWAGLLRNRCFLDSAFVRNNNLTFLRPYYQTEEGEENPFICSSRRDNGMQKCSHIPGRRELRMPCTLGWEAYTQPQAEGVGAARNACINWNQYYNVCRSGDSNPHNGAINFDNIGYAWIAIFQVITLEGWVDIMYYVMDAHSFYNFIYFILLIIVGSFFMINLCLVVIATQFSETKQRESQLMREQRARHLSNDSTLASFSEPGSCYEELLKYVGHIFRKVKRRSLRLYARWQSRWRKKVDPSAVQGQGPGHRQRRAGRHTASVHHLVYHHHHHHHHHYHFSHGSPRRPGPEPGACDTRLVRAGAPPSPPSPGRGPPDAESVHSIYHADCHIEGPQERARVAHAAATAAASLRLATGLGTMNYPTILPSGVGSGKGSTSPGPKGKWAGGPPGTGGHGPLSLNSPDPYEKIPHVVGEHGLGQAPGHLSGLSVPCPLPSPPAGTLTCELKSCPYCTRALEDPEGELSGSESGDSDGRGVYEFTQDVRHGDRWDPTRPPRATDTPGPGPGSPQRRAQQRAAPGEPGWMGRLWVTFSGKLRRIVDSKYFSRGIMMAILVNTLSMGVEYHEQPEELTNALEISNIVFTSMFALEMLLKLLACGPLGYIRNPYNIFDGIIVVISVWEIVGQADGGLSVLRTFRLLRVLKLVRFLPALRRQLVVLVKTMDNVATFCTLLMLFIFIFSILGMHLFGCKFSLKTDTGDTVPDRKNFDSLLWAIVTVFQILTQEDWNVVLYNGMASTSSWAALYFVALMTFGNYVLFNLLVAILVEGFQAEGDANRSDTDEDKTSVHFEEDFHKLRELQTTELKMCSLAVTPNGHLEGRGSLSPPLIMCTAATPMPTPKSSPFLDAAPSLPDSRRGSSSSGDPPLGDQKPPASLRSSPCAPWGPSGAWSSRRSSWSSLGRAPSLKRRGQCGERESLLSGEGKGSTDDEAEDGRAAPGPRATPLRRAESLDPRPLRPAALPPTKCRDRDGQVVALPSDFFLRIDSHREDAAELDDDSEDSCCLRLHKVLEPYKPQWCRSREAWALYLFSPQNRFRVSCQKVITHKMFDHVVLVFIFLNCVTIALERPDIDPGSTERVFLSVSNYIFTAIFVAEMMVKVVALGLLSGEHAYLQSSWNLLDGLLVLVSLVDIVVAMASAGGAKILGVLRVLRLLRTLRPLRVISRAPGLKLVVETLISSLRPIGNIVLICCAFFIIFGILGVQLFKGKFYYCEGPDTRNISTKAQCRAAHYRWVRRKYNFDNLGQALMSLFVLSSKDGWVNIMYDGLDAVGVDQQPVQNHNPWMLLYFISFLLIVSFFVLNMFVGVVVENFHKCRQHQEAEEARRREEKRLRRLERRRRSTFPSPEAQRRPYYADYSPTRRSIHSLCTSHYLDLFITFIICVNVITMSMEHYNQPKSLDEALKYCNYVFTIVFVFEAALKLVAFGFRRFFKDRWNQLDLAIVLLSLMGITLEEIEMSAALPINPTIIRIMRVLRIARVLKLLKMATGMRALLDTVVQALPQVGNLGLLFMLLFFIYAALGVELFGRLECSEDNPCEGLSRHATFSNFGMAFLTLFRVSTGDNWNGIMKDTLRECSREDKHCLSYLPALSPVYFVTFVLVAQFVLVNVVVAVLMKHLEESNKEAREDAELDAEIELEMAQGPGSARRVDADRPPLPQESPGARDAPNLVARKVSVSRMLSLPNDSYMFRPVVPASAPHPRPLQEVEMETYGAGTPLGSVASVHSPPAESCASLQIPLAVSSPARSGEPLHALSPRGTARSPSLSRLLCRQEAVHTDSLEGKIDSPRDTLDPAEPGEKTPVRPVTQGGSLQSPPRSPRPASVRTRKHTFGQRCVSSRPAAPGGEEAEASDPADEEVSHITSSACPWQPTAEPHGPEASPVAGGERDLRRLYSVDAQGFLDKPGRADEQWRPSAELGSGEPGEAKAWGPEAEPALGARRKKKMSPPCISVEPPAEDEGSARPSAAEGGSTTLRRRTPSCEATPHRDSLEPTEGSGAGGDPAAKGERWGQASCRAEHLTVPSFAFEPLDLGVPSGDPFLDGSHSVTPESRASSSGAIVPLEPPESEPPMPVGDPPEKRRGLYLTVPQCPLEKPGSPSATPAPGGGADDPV

[13] = target: T6, CAAX prenyl protease 2 (Saccharomyces cerevisiae S288c, UniProt Q03530); type: biochemical
T6 sequence (Q03530 whole entry): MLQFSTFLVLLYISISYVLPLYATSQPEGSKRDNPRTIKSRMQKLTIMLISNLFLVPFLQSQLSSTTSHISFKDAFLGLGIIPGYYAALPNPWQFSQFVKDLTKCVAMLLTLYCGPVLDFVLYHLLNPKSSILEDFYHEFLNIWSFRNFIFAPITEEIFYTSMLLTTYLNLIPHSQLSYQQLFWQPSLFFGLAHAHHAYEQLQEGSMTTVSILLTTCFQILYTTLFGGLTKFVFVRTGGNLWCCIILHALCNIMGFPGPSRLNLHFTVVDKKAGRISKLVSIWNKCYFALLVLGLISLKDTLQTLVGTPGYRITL

COc1ccc(NC(=O)[C@@H](NC(=O)c2ccccc2)C(C)C)cc1S(=O)(=O)N1CCCCC1
IC50 [1]: 39 µM (active)

O=C(NC(=S)NNC(=O)c1ccco1)c1ccc(Br)cc1
EC50 [2]: 13.3 µM (active) | EC50 [3]: 1.03 µM (active) | EC50 [4]: 5.96 µM (active) | EC50 [5]: 2.16 µM (active)

Cc1ccc(N2CCN(C(=O)c3ccccc3F)CC2)c(C)c1
EC50 [2]: 5.96 µM (active)

CCc1cnn(-c2ccc(C(C)C)cc2)c(=O)c1Oc1ccc(OC)cc1
IC50 [6]: 12.8 µM (inactive)

Cc1cccn2c(=O)c(/C=C3\SC(=S)N(CC(C)C)C3=O)c(NCCCOC(C)C)nc12
EC50 [7]: 0.287 µM (active)

O=c1c(C(c2ccccc2)c2c(O)sc3ccccc3c2=O)c(O)sc2ccccc12
IC50 [8]: 4.29 µM (not active) | IC50 [9]: 4.11 µM (active) | IC50 [10]: 11.3 µM (active)

O=C(CSc1n[nH]c2c3ccccc3nc-2n1)Nc1ccc(S(=O)(=O)Nc2ncccn2)cc1
IC50 [11]: 28.3 µM (active) | IC50 [1]: 61.6 µM (active)

O=C(Nc1ccc2c(c1)OCO2)C1CCN(S(=O)(=O)c2ccc3c(c2)OCCO3)CC1
IC50 [1]: 45.7 µM (active)

COc1ccc(Oc2c(C3CC3)cnn(-c3ccc(C)cc3)c2=O)cc1
IC50 [6]: 5.4 µM (active)

O=C(Nc1ccccc1Oc1cccnc1)C1CCCN(Cc2cccc(Cl)c2)C1 (stereo not drawn)
EC50 [2]: 3.76 µM (active)

O=C(Cc1ccccc1F)Nc1nc(-c2cccs2)cs1
EC50 [12]: 1.98 µM (active)

Cc1ccc(C)c(C(=O)CSc2nnc(C(C)C)[nH]2)c1
EC50 [7]: > 71.5 µM (inactive)

Cn1cnnc1Sc1nc2ccccc2nc1NS(=O)(=O)c1ccccc1
EC50 [7]: > 71.5 µM (inactive)

COc1ccccc1N1CCN(CC(=O)Nc2ccc(Cl)c(C(F)(F)F)c2)CC1
EC50 [12]: 4.08 µM (active)

COc1ccc(-n2nc(C(=O)NCC(=O)N3CCC(C)CC3)c3ccccc3c2=O)cc1
AC50 [13]: 3.87 µM (active)

CC(C)N(Cc1nc(-c2ccc(Cl)cc2)no1)C(=O)CCCN1C(=O)c2ccccc2C1=O
EC50 [12]: 3.89 µM (active)

C=C(C)CSc1nc2sc3c(c2c(=O)n1-c1ccc(OC)cc1)CCN(C)C3
AC50 [13]: 3.45 µM (active)
